Format in all cases: cell-based
The test system of test [1] is phosphorylated Akt protein. The test is described as follows: Cellular PI3K / Akt pathway assay (phospho-Akt Ser473 sandwich ELISA). Conditions: Homo sapiens; MCF7 cells, ß-Heregulin (20ng/ml) stimulation, 48h incubation. The procedure: In order to study the cellular activity of the compounds according to the present invention, an Enzyme Linked Immunosorbent Assay (ELISA)-based assay has been used specific phospho-AKT. The assay is based on a Sandwich ELISA kit (PathScan™ Phospho-Akt1 (Ser473); Cell Signaling, USA; #7160). The ELISA Kit detects endogenous levels of phosphorylated Akt protein. A phospho-Akt (Ser473) antibody (Cell Signaling, USA; #9271) has been coated onto the microwells. After incubation with cell lysates, the coated antibody captures the phosphorylated Akt protein. Following extensive washing, Akt1 monoclonal antibody (Cell Signaling, USA; #2967) is added to detect the captured phospho-Akt1 protein. HRP-linked anti-mouse antibody (HRP: horseradish peroxidase; Cell Signaling, USA; #7076) is then used to recognize the bound detection antibody. HRP substrate (= 3,3',5,5'-tetramethylbenzidine (TMB); Cell Signaling, USA; #7160) is added to develop colour. The magnitude of optical density for this developed color is proportional to the quantity of phosphorylated Akt protein. MCF7 cells (ATCC HTB-22) are seeded into 96 well fate bottom plates at a density of 10000 cells/well. 24 hours after seeding, the cells are serum starved using low-serum medium (IMEM media including 0,1% charcoal treated FCS (FCS: fetal calf serum)). […] To stimulate Akt phosphorylation, ß-Heregulin (20ng/ml ß-HRG) is added in parallel to the compounds. Wells containing unstimulated control cells (no ß-Heregulin stimulation) are incubated with or without the diluted compound. Wells containing untreated control cells (no compound) are filled with medium containing 0.5% v:v DMSO and are or are not stimulated with ß-Heregulin. Cells are harvested and lysed with brief sonification in 1x cell lysis buffer (20mM Tris (pH7.5), 150 mM NaCl, 1 mM ethylene diaminetetraacetate (EDTA), 1 mM ethylene glycolbis(2-aminoethyl)-N,N,N',N'-tetraacetic acid (EGTA), 1vol% Triton X-100, 2.5mM sodium pyrophosphate, 1 mM β-glycerolphosphate, 1 mM Na3VO4, 1µg/ml leupeptin). The lysate is centrifuged for 10 min. at 4°C and the supernatant is transferred to a new tube. 100 µl of sample diluent (0.1vol% Tween-20, 0.1vol% sodium azide in phosphate buffered saline (PBS)) are added to a microcentrifuge tube and 100 µl of cell lysate are transferred into the tube and vortexed. 100 µl of each diluted cell lysate are added to the appropriate ELISA well, and incubated overnight at 4°C. The plates are washed 4 times with 1x wash buffer (1vol% tween-20, 0.33vol% thymol, in PBS). Next 100 µl of detection antibody (Akt1 (2H10) monoclonal detection antibody; Cell Signaling, USA; #2967) are added to each well and incubation continued for 1h at 37°C. The washing procedure is repeated between each step. 100µl of secondary antibody (anti-mouse IgG HRP-linked antibody; Cell Signaling, USA; #7076) are added to each well and incubated for 30 min. at 37°C. Than, 100µl of TMB substrate (0.05% 3,3',5,5' tetramethylbenzidine, 0.1 % hydrogen peroxide, complex polypeptides in a buffered solution; Cell Signaling, USA; #7160) are added to each well and incubated for 30 min. at 25°C. Finally 100 µl of STOP solution (0.05vol% α and β unsaturated carbonyl compound) are added to each well and the plate are shaked gently. The absorbance is measured at λ =450 nm (Wallac Victor2; Perkin Elmer, USA) within 30 min. after adding the STOP solution. The analysis of the data is performed using a statistical program (Excel; Microsoft, USA). Preferred compounds show an inhibitory activity towards Akt phosphorylation below 10µM.
(ELISA stands for enzyme-linked immunosorbent assay.)

Test [2] deals with phosphorylated GSK3. Description: Cellular pGSK3 assay (phospho-GSK3 Ser9 sandwich ELISA). Conditions: Homo sapiens; MCF7 cells, 48h incubation, IC50 of pGSK3 inhibition. The procedure: In order to study the cellular activity of the compounds according to the present invention, an ELISA-based assay has been established for the phosphorylated protein glycogen synthetase kinase 3 (GSK3). The assay is based on a solid phase sandwich ELISA that detects endogenous levels of phosphorylated GSK3 using a phospho-GSK3 (Ser9) specific antibody (BioSource International, Inc.; Catalog #KHO0461). After incubation with cell lysates, the coated antibody captures the phosphorylated GSK3 protein. Following extensive washing, GSK3 polyclonal antibody is added to detect the captured phospho-GSK3 protein. Secondary antibody (anti-rabbit IgG-HRP) is then used to recognize the bound detection antibody. After the second incubation and washing to remove all the excess anti-rabbit IgG-HRP, a substrate solution is added, which is acted upon by the bound enzyme to produce color. The intensity of this colored product is directly proportional to the concentration of GSK-3β [pS9] present in the original specimen. MCF7 cells (ATCC HTB-22) were seeded into 96 well fate bottom plates at a density of 10000 cells/well. After 24 h 1 µl each of the compound dilutions (test compounds were dissolved as 10 mM solutions in dimethylsulfoxide (DMSO) and subsequently diluted) were added into each well of the 96 well plates and incubated for 48h at 37°C in a humidified athmosphere containing 5% CO2. Cells were harvested and lysed in cell extraction buffer (10 mM Tris, pH 7.4, 100 mM NaCl, 1 mM EDTA, 1 mM EGTA, 1 mM NaF, 20 mM Na4P2O7, 2 mM Na3VO4, 1% Triton X-100, 10vol% glycerol, 0.1vol% SDS, 0.5vol% deoxycholate, 1 mM phenylmethylsulfonylfluorid (PMSF)). The lysate were centrifuged for 10 min. at 4°C and the supernatant were transferred to a new tube. 50 µl of sample diluent (standard diluent buffer, Biosource) were added and 100 µl of cell lysate transferred into the tube and vortexed. 100 µl of each diluted cell lysate were added to the appropriate ELISA well plate and incubated for 3h at room temperature. The plates were washed 4 times with 1x wash buffer (Biosource). 50 µl of detection antibody (GSK3 (Ser9) detection antibody; BioSource) were added to each well and incubated for 30 min. at room temperature. The washing procedure was repeated between each step. 100µl of HRP-linked secondary antibody (anti-mouse IgG HRP-linked antibody) were added to each well and incubated for 30 min. at room temperature. 100µl of TMB substrate (0.05vol% 3,3',5,5' tetramethylbenzidine, 0.1vol% hydrogen peroxide, complex polypeptides in a buffered solution; Biosource) were added to each well and incubated for 30 min. at room temperature. Finally 100 µl of Stop solution (0.05vol% α and β unsaturated carbonyl compound) were added to each well and the plate were shaked gently for a few seconds. The absorbance was measured at λ = 450 nm (Wallac Victor2; Perkin Elmer, USA) within 30 min. after adding the stop solution. The analysis of the data was performed using a statistical program (Excel; Microsoft, USA) and the IC50 of pGSK3 inhibition was determined.

Test [3] concerns OvCAR3 cells. Description: Cellular proliferation / Cytotoxicity assay (Alamar Blue / Resazurin cell viability). Conditions: Homo sapiens, OVCAR-3, 48h incubation, read-out: Anti-proliferative / Cytotoxic activity (OvCAR3 cells). The procedure: Wells containing untreated control cells were filled with 200 µl DMEM (Dulbecco's Modified Eagle Medium) containing 0.5vol% v:v DMSO. The cells are then incubated with the substances for 48h at 37°C in a humidified atmosphere containing 5vol% CO2. To determine the viability of the cells, 20 µl of a Resazurin solution (90mg / I) are added. […] Viabilities are expressed as % values.

The structures appear in SMILES notation.

In patent publication EP2062893A1, “Fused imidazoles for cancer treatment” (Bayer Schering Pharma AG, priority 2007, dated 2009) one finds IC50 data, which are given here for twelve compounds.

In the case of `c1ccc(-c2nc(C3CCN(Cc4ccc(-c5nc6ccccn6c5-c5ccncc5)cc4)CC3)n[nH]2)nc1` [Example 16, 3-pyridin-4-yl-2-(4-{[4-(5-pyridin-2-yl-1,2,4-triazol-3-yl)piperidin-1-yl]methyl}phenyl)imidazo[1,2-a]pyridine], the IC50 was 1 to 10 µM in test [1], 1 to 10 µM in test [2] and < 10 µM in test [3].

`c1ccc(-c2nc(C3CCN(Cc4ccc(-c5nc6ccccn6c5-c5cccs5)cc4)CC3)n[nH]2)nc1` [Example 17, 2-(4-{[4-(5-pyridin-2-yl-1,2,4-triazol-3-yl)piperidin-1-yl]methyl}phenyl)-3-(2-thienyl)imidazo[1,2-a]pyridine]: the figures for the IC50 in test [1], in test [2] and in test [3] were < 1 µM, 1 to 10 µM and < 10 µM, respectively.

As to `Fc1ccc(-c2c(-c3ccc(CN4CCC(c5n[nH]c(-c6ccccn6)n5)CC4)cc3)nc3ncccn23)cc1` [Example 18, 3-(4-fluorophenyl)-2-(4-{[4-(5-pyridin-2-yl-1,2,4-triazol-3-yl)piperidin-1-yl]methyl}phenyl)imidazo[1,2-a]pyrimidine], the values for the IC50 in test [1], in test [2] and in test [3] were 1 to 10 µM, 1 to 10 µM and < 10 µM, respectively.

Regarding `Cc1ccn2c(-c3ccccc3)c(-c3ccc(CN4CCC(c5n[nH]c(-c6ccccn6)n5)CC4)cc3)nc2n1` [Example 19, 7-methyl-3-phenyl-2-(4-{[4-(5-pyridin-2-yl-1,2,4-triazol-3-yl)piperidin-1-yl]methyl}phenyl)imidazo[1,2-a]pyrimidine], the IC50 is < 1 µM in test [1], < 1 µM in test [2] and < 10 µM in test [3].

`COc1ccc(-c2c(-c3ccc(CN4CCC(c5n[nH]c(-c6ccccn6)n5)CC4)cc3)nc3ncccn23)cc1` [Example 20, 3-(4-methoxyphenyl)-2-(4-{[4-(5-pyridin-2-yl-1,2,4-triazol-3-yl)piperidin-1-yl]methyl}phenyl)imidazo[1,2-a]pyrimidine]: the IC50 in test [1], in test [2] and in test [3] was > 10 µM each time.

Take `Clc1cnc2nc(-c3ccc(CN4CCC(c5n[nH]c(-c6ccccn6)n5)CC4)cc3)c(-c3ccccc3)n2c1` [Example 21, 6-chloro-3-phenyl-2-(4-{[4-(5-pyridin-2-yl-1,2,4-triazol-3-yl)piperidin-1-yl]methyl}phenyl)imidazo[1,2-a]pyrimidine]: the IC50 was < 1 µM in test [1], 1 to 10 µM in test [2] and < 10 µM in test [3].

On to `Fc1ccc2nc(-c3ccc(CN4CCC(c5n[nH]c(-c6ccccn6)n5)CC4)cc3)c(-c3ccccc3)n2c1` [Example 22, 6-fluoro-3-phenyl-2-(4-{[4-(5-pyridin-2-yl-1,2,4-triazol-3-yl)piperidin-1-yl]methyl}phenyl)imidazo[1,2-a]pyridine], for which the IC50 in test [1] is < 1 µM; in test [2], 1 to 10 µM; in test [3] it was < 10 µM.

With `Ic1cnc2nc(-c3ccc(CN4CCC(c5n[nH]c(-c6ccccn6)n5)CC4)cc3)c(-c3ccccc3)n2c1` [Example 23, 6-iodo-3-phenyl-2-(4-{[4-(5-pyridin-2-yl-1,2,4-triazol-3-yl)piperidin-1-yl]methyl}phenyl)imidazo[1,2-a]pyrimidine], the IC50 in test [1] was < 1 µM; in test [2], 1 to 10 µM; in test [3] it was < 10 µM.

In the case of `COc1ccn2c(-c3ccccc3)c(-c3ccc(CN4CCC(c5n[nH]c(-c6ccccn6)n5)CC4)cc3)nc2n1` [Example 24, 7-methoxy-3-phenyl-2-(4-{[4-(5-pyridin-2-yl-1,2,4-triazol-3-yl)piperidin-1-yl]methyl}phenyl)imidazo[1,2-a]pyrimidine], the IC50 in test [1] is < 1 µM; in test [2], < 1 µM; in test [3] it was < 10 µM.

On to `Brc1cccn2c(-c3ccccc3)c(-c3ccc(CN4CCC(c5n[nH]c(-c6ccccn6)n5)CC4)cc3)nc12` [Example 25, 8-bromo-3-phenyl-2-(4-{[4-(5-pyridin-2-yl-1,2,4-triazol-3-yl)piperidin-1-yl]methyl}phenyl)imidazo[1,2-a]pyridine], for which the values for the IC50 in test [1], in test [2] and in test [3] were < 1 µM, < 1 µM and < 10 µM, respectively.

For `COc1nccn2c(-c3ccccc3)c(-c3ccc(CN4CCC(c5n[nH]c(-c6ccccn6)n5)CC4)cc3)nc12` [Example 27, 8-methoxy-3-phenyl-2-(4-{[4-(5-pyridin-2-yl-1,2,4-triazol-3-yl)piperidin-1-yl]methyl}phenyl)imidazo[1,2-a]pyrazine], the results for the IC50 in test [1], in test [2] and in test [3] were < 1 µM, 1 to 10 µM and < 10 µM, respectively.

Take `N#Cc1ccn2c(-c3ccccc3)c(-c3ccc(CN4CCC(c5n[nH]c(-c6ccccn6)n5)CC4)cc3)nc2c1` [Example 29, 3-phenyl-2-(4-{[4-(5-pyridin-2-yl-1,2,4-triazol-3-yl)piperidin-1-yl]methyl}phenyl)imidazo[1,2-a]pyridine-7-carbonitrile]: the IC50 in test [1] is < 1 µM; in test [2], < 1 µM; in test [3] it was < 10 µM.
